From ChEMBL document CHEMBL4052768, “Discovery of novel 2-(3-phenylpiperazin-1-yl)-pyrimidin-4-ones as glycogen synthase kinase-3β inhibitors” (Bioorg Med Chem Lett, 2017) come the findings set out here.

Molecules are shown by their SMILES. Bounds are passed on as bounds.

Broadly, the IC50 is the concentration that inhibits the measured activity by half.

The target in experiment [1] is Glycogen synthase kinase-3 beta (Homo sapiens, UniProt P49841). Briefly: Inhibition of recombinant human GSK-3beta using prephosphorylated GS-1 peptide as substrate after 1 hr in presence of [gamma-32P]ATP by liquid scintillation spectrometric method.
Glycogen synthase kinase-3 beta, sequence (P49841 whole entry): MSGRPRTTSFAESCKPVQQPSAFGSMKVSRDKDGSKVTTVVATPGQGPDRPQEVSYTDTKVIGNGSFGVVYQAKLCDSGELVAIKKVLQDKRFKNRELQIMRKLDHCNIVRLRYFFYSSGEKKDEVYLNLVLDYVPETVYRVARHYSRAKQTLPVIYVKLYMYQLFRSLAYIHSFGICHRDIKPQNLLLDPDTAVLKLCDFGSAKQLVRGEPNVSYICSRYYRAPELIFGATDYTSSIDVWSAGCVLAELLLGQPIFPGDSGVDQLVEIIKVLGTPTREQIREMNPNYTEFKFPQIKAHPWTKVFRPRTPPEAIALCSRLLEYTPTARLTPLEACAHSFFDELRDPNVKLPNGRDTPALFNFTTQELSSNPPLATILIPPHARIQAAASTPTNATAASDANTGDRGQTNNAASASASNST
The target of experiment [2] is T1, Cytochrome P450 2D6 (Homo sapiens, UniProt P10635). Briefly: Inhibition of recombinant human CYP2D6. In kind it is ADME.
T1 sequence (P10635 whole entry): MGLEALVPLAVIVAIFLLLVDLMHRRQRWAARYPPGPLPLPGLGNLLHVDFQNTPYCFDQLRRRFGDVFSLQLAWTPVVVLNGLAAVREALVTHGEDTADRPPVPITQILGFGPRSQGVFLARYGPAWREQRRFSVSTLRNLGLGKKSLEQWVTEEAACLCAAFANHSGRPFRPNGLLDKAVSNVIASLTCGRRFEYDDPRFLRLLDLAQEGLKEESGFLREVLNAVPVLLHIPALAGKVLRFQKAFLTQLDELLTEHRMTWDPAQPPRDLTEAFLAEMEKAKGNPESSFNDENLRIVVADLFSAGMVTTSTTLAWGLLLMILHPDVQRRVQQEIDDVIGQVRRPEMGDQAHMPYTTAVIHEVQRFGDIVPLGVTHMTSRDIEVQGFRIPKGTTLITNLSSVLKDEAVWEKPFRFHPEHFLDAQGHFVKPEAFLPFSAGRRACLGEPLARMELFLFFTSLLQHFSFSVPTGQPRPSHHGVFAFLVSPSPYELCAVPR
Experiment [3] concerns the target T2, Cytochrome P450 1A2 (Homo sapiens, UniProt P05177).
T2 sequence (P05177 whole entry): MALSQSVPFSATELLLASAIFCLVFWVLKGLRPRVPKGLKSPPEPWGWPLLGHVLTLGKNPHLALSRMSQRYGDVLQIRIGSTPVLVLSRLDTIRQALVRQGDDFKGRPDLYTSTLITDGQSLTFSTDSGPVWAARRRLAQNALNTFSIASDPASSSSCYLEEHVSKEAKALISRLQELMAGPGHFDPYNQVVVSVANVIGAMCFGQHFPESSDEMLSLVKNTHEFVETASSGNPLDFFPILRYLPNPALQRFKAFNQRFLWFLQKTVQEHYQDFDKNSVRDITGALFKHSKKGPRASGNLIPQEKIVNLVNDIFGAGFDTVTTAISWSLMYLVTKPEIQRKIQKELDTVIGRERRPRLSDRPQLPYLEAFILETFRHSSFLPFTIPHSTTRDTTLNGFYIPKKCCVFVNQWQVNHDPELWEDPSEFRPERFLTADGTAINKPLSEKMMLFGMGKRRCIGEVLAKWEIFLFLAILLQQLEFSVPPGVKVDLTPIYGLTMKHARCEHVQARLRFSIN
Briefly: Inhibition of CYP1A2 in human liver microsomes. Type of experiment: ADME. (Liver microsomes are a subcellular fraction often used to study metabolism.)

Experiment [4] concerns the target T3, Cytochrome P450 3A4 (Homo sapiens, UniProt P08684). The experiment in a line: Inhibition of recombinant human CYP3A4. Type of experiment: ADME.
Experiment [5] concerns the target T2, Cytochrome P450 1A2. Briefly: Inhibition of recombinant human CYP1A2. In kind it is ADME.
In experiment [6] the target is T1, Cytochrome P450 2D6. Briefly: Inhibition of CYP2D6 in human liver microsomes. In kind it is ADME.
The target in experiment [7] is T3, Cytochrome P450 3A4. The experiment in a line: Inhibition of CYP3A4 in human liver microsomes. In kind it is ADME.

T3 sequence (P08684 whole entry): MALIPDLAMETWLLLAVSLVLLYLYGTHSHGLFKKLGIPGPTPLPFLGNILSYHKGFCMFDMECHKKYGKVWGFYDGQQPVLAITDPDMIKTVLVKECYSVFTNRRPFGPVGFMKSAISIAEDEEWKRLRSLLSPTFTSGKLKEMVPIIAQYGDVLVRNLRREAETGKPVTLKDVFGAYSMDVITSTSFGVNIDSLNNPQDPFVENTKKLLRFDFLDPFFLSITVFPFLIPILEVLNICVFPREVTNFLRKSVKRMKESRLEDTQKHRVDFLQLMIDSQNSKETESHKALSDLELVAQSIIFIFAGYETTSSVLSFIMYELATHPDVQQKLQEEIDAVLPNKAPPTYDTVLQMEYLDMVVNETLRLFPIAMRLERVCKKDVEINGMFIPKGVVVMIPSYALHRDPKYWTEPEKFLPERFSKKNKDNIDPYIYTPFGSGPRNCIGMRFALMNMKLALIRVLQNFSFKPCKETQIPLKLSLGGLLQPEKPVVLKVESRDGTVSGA

In the case of `Cn1c(N2CCN[C@H](c3ccc(Cl)cc3)C2)nc(-c2ccncn2)cc1=O`, the IC50 in experiment [1] came out at 26 nM.

With `COc1cc(F)ccc1C1CN(c2nc(-c3ccncc3)cc(=O)n2C)CCN1` (single isomer, unassigned; enantiomer 2), the IC50 in experiment [2] was 6000 nM; in experiment [1], 0.4 nM; in experiment [3] it was greater than 53000 nM; in experiment [4], greater than 50000 nM.

On to `COc1cc(F)ccc1C1CN(c2nc(-c3ccncc3)cc(=O)n2C)CCN1C(C)=O` (stereo unspecified), for which, in experiment [1], the IC50 is 1700 nM.

With `COc1cc(F)ccc1C1CN(c2nc(-c3ccncn3)cc(=O)n2C)CCN1` (single isomer, unassigned; enantiomer 2), the results for the IC50 in experiment [2], in experiment [1] and in experiment [3] were 9100 nM, 0.25 nM and greater than 53000 nM, respectively.

For `Cn1c(N2CCNC(c3ccc(Cl)c(Cl)c3)C2)nc(-c2ccncn2)cc1=O` (stereo unspecified), in experiment [1], the IC50 turned out to be 2.3 nM.

In the case of `Cn1c(N2CCN[C@@H](c3ccc(Cl)cc3)C2)nc(-c2ccncn2)cc1=O`, the IC50 in experiment [1] came to 1.2 nM.

On to `COc1ccc(C2CN(c3nc(-c4ccncn4)cc(=O)n3C)CCN2)cc1` (racemic), for which the IC50 in experiment [1] amounted to 3.5 nM.

Turning to `Cn1c(N2CCNC(c3cccc(Cl)c3)C2)nc(-c2ccncc2)cc1=O` (racemic), in experiment [1], the IC50 is 5.4 nM.

As to `COc1cc(F)ccc1C1CN(c2nc(-c3ccncn3)cc(=O)n2C)CCN1Cc1ccccc1` (stereo unspecified), in experiment [1], the IC50 was found to be 220 nM.

`Cn1c(N2CCNC(c3ccc(Cl)c(Cl)c3)C2)nc(-c2ccncc2)cc1=O` (stereo unspecified): the IC50 in experiment [1] was found to be 4.3 nM.

For the compound `COc1cc(F)cc(F)c1C1CN(c2nc(-c3ccncn3)cc(=O)n2C)CCN1` (stereo unspecified), the IC50 in experiment [1] turned out to be 1.7 nM.

As for `COc1cc(F)ccc1C1CN(c2nc(-c3ccncn3)cc(=O)n2C)CCN1` (single isomer, unassigned; Enantiomer-1), the IC50 in experiment [2] is 3400 nM; in experiment [1], 44 nM; in experiment [3], greater than 53000 nM; in experiment [4], greater than 50000 nM.

As for `Cn1c(N2CCNC(c3cccc(F)c3)C2)nc(-c2ccncn2)cc1=O` (racemic), the concentration for half-maximal inhibition (IC50) in experiment [1] is 12 nM.

For `Cn1c(N2CCNC(c3ccccc3Br)C2)nc(-c2ccncc2)cc1=O` (racemic), in experiment [1], the IC50 turned out to be 13 nM.

`Cn1c(N2CCNC(c3ccccc3F)C2)nc(-c2ccncc2)cc1=O` (stereo unspecified): the IC50 in experiment [1] came to 11 nM.

On to `Cn1c(N2CCNC(c3ccc(Br)cc3)C2)nc(-c2ccncc2)cc1=O` (racemic), for which, in experiment [1], the IC50 amounted to 22 nM.

Regarding `COc1ccc(C2CN(c3nc(-c4ccncc4)cc(=O)n3C)CCN2)cc1OC` (stereo unspecified), the concentration for half-maximal inhibition (IC50) in experiment [1] amounted to 5.2 nM.

Consider `COc1ccccc1C1CN(c2nc(-c3ccncc3)cc(=O)n2C)CCN1` (racemic), for which the IC50 in experiment [2] was less than 200 nM; in experiment [1], 1.8 nM; in experiment [5], greater than 50000 nM; in experiment [4], greater than 50000 nM.

On to `Cn1c(N2CCNC(c3ccc(Br)cc3)C2)nc(-c2ccncn2)cc1=O` (racemic), for which the IC50 in experiment [1] is 8.1 nM.

With `Cn1c(N2CCNC(c3ccccc3Cl)C2)nc(-c2ccncc2)cc1=O` (racemic), the IC50 in experiment [1] amounted to 9.6 nM.

Take `Cn1c(N2CCNC(c3ccccc3)C2)nc(-c2ccncc2)cc1=O` (racemic): the IC50 in experiment [1] came to 18 nM.

With `Cn1c(N2CCNC(c3ccccc3Br)C2)nc(-c2ccncn2)cc1=O` (racemic), the IC50 in experiment [1] amounted to 4.3 nM.

`Cn1c(N2CCNC(c3cccc(Br)c3)C2)nc(-c2ccncn2)cc1=O` (racemic): the half-maximal inhibitory concentration (IC50) in experiment [1] was 2 nM.

On to `Cn1c(N2CCNC(c3ccc(Cl)cc3)C2)nc(-c2ccncc2)cc1=O` (racemic), for which the IC50 in experiment [1] turned out to be 6.6 nM.

For the compound `Cn1c(N2CCNC(c3ccc(Cl)cc3)C2)nc(-c2ccncn2)cc1=O` (racemic), the IC50 in experiment [1] was determined as 1.7 nM.

For the compound `CCOc1ccccc1C1CN(c2nc(-c3ccncc3)cc(=O)n2C)CCN1` (stereo unspecified), in experiment [1], the IC50 came out at 25 nM.

With `Cn1c(N2CCNC(c3ccccc3Cl)C2)nc(-c2ccncn2)cc1=O` (racemic), the IC50 in experiment [1] came out at 2.6 nM.

As for `Cn1c(N2CCN[C@@H](c3ccc(Cl)cc3)C2)nc(-c2ccncc2)cc1=O`, the IC50 in experiment [1] amounted to 11 nM.

Take `COc1ccc(C2CN(c3nc(-c4ccncc4)cc(=O)n3C)CCN2)cc1` (racemic): the half-maximal inhibitory concentration (IC50) was 4.7 nM in experiment [1], 45000 nM in experiment [6], greater than 53000 nM in experiment [7] and greater than 53000 nM in experiment [3].

`Cn1c(N2CCN[C@H](c3ccc(Cl)cc3)C2)nc(-c2ccncc2)cc1=O`: in experiment [1], the IC50 was found to be 110 nM.

As for `COc1cccc(C2CN(c3nc(-c4ccncn4)cc(=O)n3C)CCN2)c1` (racemic), in experiment [1], the IC50 is 6.7 nM.

On to `COc1cc(F)ccc1C1CN(c2nc(-c3ccncn3)cc(=O)n2C)CCN1C(C)=O` (stereo unspecified), for which the IC50 in experiment [1] stood at 1500 nM.

Regarding `COc1cc(F)ccc1C1CN(c2nc(-c3ccncc3)cc(=O)n2C)CCN1` (racemic), the IC50 in experiment [2] was 1800 nM; in experiment [1], 0.9 nM; in experiment [3], greater than 53000 nM; in experiment [4], greater than 53000 nM.

In the case of `Cn1c(N2CCNC(c3cccc(Cl)c3)C2)nc(-c2ccncn2)cc1=O` (racemic), in experiment [1], the IC50 amounted to 1.1 nM.

For the compound `Cn1c(N2CCNC(c3ccc(C#N)cc3)C2)nc(-c2ccncc2)cc1=O` (racemic), the IC50 in experiment [1] stood at 15 nM.

As for `COc1cc(F)ccc1C1CN(c2nc(-c3ccncc3)cc(=O)n2C)CCN1C` (stereo unspecified), in experiment [1], the IC50 was found to be 56 nM.

As for `COc1cc(F)cc(F)c1C1CN(c2nc(-c3ccncc3)cc(=O)n2C)CCN1` (stereo unspecified), in experiment [1], the IC50 stood at 2 nM.

For the compound `Cc1cc(F)ccc1C1CN(c2nc(-c3ccncc3)cc(=O)n2C)CCN1` (stereo unspecified), in experiment [1], the IC50 amounted to 24 nM.

As for `COc1ccc(C2CN(c3nc(-c4ccncn4)cc(=O)n3C)CCN2)cc1OC` (stereo unspecified), the IC50 in experiment [1] turned out to be 7.8 nM.

For the compound `Cn1c(N2CCNC(c3ccc(F)cc3)C2)nc(-c2ccncc2)cc1=O` (racemic), in experiment [1], the half-maximal inhibitory concentration (IC50) was 18 nM.

In the case of `Cn1c(N2CCNC(c3cccc(F)c3)C2)nc(-c2ccncc2)cc1=O` (racemic), the IC50 in experiment [1] came to 22 nM.

On to `COc1cc(F)ccc1C1CN(c2nc(-c3ccncn3)cc(=O)n2C)CCN1` (racemic), for which the IC50 is 2700 nM in experiment [2], 0.72 nM in experiment [1] and greater than 53000 nM in experiment [3].

As to `COc1cc(F)ccc1C1CN(c2nc(-c3ccncc3)cc(=O)n2C)CCN1` (single isomer, unassigned; enantiomer 1), the IC50 in experiment [2] was 1000 nM; in experiment [1] it was 54 nM; in experiment [3] it was greater than 53000 nM; in experiment [4] it was greater than 50000 nM.

In the case of `COc1ccccc1C1CN(c2nc(-c3ccncn3)cc(=O)n2C)CCN1` (stereo unspecified), the IC50 in experiment [1] was 1.8 nM.

Consider `COc1cc(F)ccc1C1CN(c2nc(-c3ccncn3)cc(=O)n2C)CCN1C` (stereo unspecified), for which, in experiment [1], the IC50 came out at 26 nM.

As for `Cn1c(N2CCNC(c3ccc(C#N)cc3)C2)nc(-c2ccncn2)cc1=O` (racemic), the IC50 in experiment [1] came out at 7.4 nM.

`Cn1c(N2CCNC(c3ccccc3F)C2)nc(-c2ccncn2)cc1=O` (stereo unspecified): in experiment [1], the IC50 stood at 8.2 nM.

With `COc1cccc(C2CN(c3nc(-c4ccncc4)cc(=O)n3C)CCN2)c1` (racemic), the IC50 was 400 nM in experiment [2], 11 nM in experiment [1], greater than 50000 nM in experiment [5] and greater than 50000 nM in experiment [4].

Turning to `COc1cc(F)ccc1C1CN(c2nc(-c3ccncc3)cc(=O)n2C)CCN1Cc1ccccc1` (stereo unspecified), the IC50 in experiment [1] stood at 1200 nM.

Regarding `CCOc1ccccc1C1CN(c2nc(-c3ccncn3)cc(=O)n2C)CCN1` (stereo unspecified), in experiment [1], the IC50 came out at 20 nM.

Regarding `Cn1c(N2CCNC(c3ccc(F)cc3)C2)nc(-c2ccncn2)cc1=O` (racemic), the IC50 in experiment [1] amounted to 8.6 nM.
